Experimental data from PMC6930500, “Structure–Activity Relationships of 7-Substituted Dimethyltyrosine-Tetrahydroisoquinoline Opioid Peptidomimetics” (Molecules, 2019).

Assays:
[1] = target: T1, human MOR (Homo sapiens, UniProt P35372); test: [35S]-GTPγS binding stimulation, MOR; assay type: biochemical; conditions: for EC50: CHO-human MOR membranes, dns = does not stimulate, average maximal stimulation <10% at up to 10 µM; for EC50 / Emax: mean (SEM), * n = 2; for Emax: versus 10 µM standard agonist DAMGO, dns = average maximal stimulation <10% at up to 10 µM
T1 construct: expressed in transfected cells; cell lines provided by Professor Lawrence Toll
Experimental: (§1) Each novel compound was evaluated for binding to and stimulation of KOR, MOR, and DOR. Binding affinity (Ki) was determined by competitive displacement of [^3H]-diprenorphine, a non-selective opioid receptor antagonist with similar affinity for each of the three receptors. Potency (EC50) and efficacy, expressed as percent stimulation compared to a standard agonist at each receptor, were determined by a [^35S]-GTPγS binding assay.
(§2) Membranes prepared from transfected Chinese Hamster Ovary cells stably expressing human KOR, human MOR, or human DOR were used for all assays. Cells were grown to confluence at 37 °C in 5% CO2 in 1:1 DMEM:F12 media with 10% v/v fetal bovine serum and 5% v/v penicillin/streptomycin. Membranes were prepared by washing confluent cells three times with ice cold phosphate-buffered saline (0.9% NaCl, 0.61 mM Na2HPO4, 0.38 mM KH2PO4, pH 7.4). Cells were detached from the plates by incubation in warm harvesting buffer (20 mM HEPES, 150 mM NaCl, 0.68 mM EDTA, pH 7.4) and pelleted by centrifugation at 200× g for 3 min. The cell pellet was suspended in ice-cold 50 mM Tris-HCl buffer, pH 7.4 and homogenized with a Tissue Tearor (Biospec Products, Inc, distributed by Cole-Parmer, Vernon Hills, IL, USA) for 20 s at setting 4. The homogenate was centrifuged at 20,000× g for 20 min at 4 °C, and the pellet was rehomogenized in 50 mM Tris-HCl pH 7.4 with a Tissue Tearor for 10 s at setting 2, followed by recentrifugation. The final pellet was resuspended in 50 mM Tris-HCl pH 7.4 and frozen in aliquots at −80 °C. Protein concentration was determined via Pierce BCA protein assay kit using bovine serum albumin as the standard.
(§3) Agonist stimulation of KOR, MOR, and DOR by all test compounds was determined by [^35S]-guanosine 5′-O-[γ-thio]triphosphate ([^35S]-GTPγS) binding assays as previously reported. In a 96-well plate format, membranes from cells expressing opioid receptors as described above (10 µg of protein), [^35S]-GTPγS (0.1 nM), and guanosine diphosphate (30 µM) were incubated in GTPγS buffer (50 mM Tris-HCl, 100 mM NaCl, 5 mM MgCl2, 1 mM EDTA, pH 7.4) with various concentrations of test compound at 25 °C for 1 h. Basal stimulation was determined by incubation in the absence of any ligand. After incubation, membranes were filtered through Whatman GF/C 1.2 micron glass fiber filters and washed with GTPγS buffer with no EDTA. The radioactivity remaining on the filters was then quantified by liquid scintillation counting after saturation with EcoLume liquid scintillation cocktail in a Perkin-Elmer Microbeta 2450. Data are reported as percent stimulation compared to the effects of 10 µM standard agonists—U69,593 (KOR), DAMGO (MOR), or DPDPE (DOR). Percent stimulation and EC50 values were determined via nonlinear regression analysis using GraphPad Prism software from at least three separate assays performed in duplicate. Efficacy is expressed as percent stimulation relative to standard agonists.

[2] = target: T2, human DOR (Homo sapiens, UniProt P41143); test: [35S]-GTPγS binding stimulation, DOR; assay type: biochemical; conditions: mean (SEM), * n = 2; for EC50 DOR / EC50: CHO-human DOR membranes, dns = does not stimulate, average maximal stimulation <10% at up to 10 µM; for % Stimulation DOR: versus 10 µM standard agonist DPDPE, dns = average maximal stimulation <10% at up to 10 µM
T2 construct: expressed in transfected cells; cell lines provided by Professor Lawrence Toll
Experimental: as §1, §2, §3

[3] = target: T2, human DOR; test: [3H]-diprenorphine competitive displacement binding, DOR; conditions: membranes from CHO cells expressing human DOR; mean (SEM), n>=3 in duplicate
Experimental: as §1, §2
(§4) Binding affinities for all test compounds at KOR, MOR, and DOR were determined by competitive displacement of [^3H]-diprenorphine as previously reported. In a 96-well plate format, cell membranes (5–10 µg of protein) and [^3H]-diprenorphine (0.2 nM) were incubated in Tris-HCl buffer (50 mM, pH 7.4) with various concentrations of test compound at 25 °C for 1 h, allowing the mixture to reach equilibrium. Nonspecific binding was determined using the opioid antagonist naloxone (10 µM), and total binding was determined using vehicle in the absence of competitive ligand. After incubation, membranes were filtered through Whatman GF/C 1.2 micron glass fiber filters and washed with 50 mM Tris-HCl buffer. The radioactivity remaining on the filters was then quantified by liquid scintillation counting after saturation with EcoLume liquid scintillation cocktail in a Microbeta 2450 (Perkin-Elmer, Waltham, MA, USA). Binding affinity (Ki) values were calculated using the Cheng–Prusoff equation via nonlinear regression analysis using GraphPad Prism software from at least three separate binding assays performed in duplicate.

[4] = target: T3, human KOR (Homo sapiens, UniProt P41145); test: [3H]-diprenorphine competitive displacement binding, KOR; conditions: for Ki: membranes from CHO cells expressing human KOR, mean (SEM), n>=3 in duplicate
T3 construct: expressed in transfected cells; cell lines provided by Professor Lawrence Toll
Experimental: as §1, §2, §4

[5] = target: T3, human KOR; test: [35S]-GTPγS binding stimulation, KOR; assay type: biochemical; conditions: mean (SEM); for EC50 KOR / EC50: CHO-human KOR membranes, * n = 2, dns = does not stimulate, average maximal stimulation <10% at up to 10 µM; for % Stimulation KOR / Emax: versus 10 µM standard agonist U69,593, dns = average maximal stimulation <10% at up to 10 µM
Experimental: as §1, §2, §3

[6] = target: T1, human MOR; test: [3H]-diprenorphine competitive displacement binding, MOR; conditions: membranes from CHO cells expressing human MOR; mean (SEM), n>=3 in duplicate
Experimental: as §1, §2, §4

Row | SMILES | EC50 [1] [nM] | Emax [1] [%] | EC50 DOR [2] | % Stimulation DOR [2] | Ki [3] [nM] | Ki [4] [nM] | EC50 KOR [5] | % Stimulation KOR [5] | Ki [6] [nM] | EC50 [5] [nM] | Emax [5] [%] | EC50 [2] [nM] | more potent at MOR (versus KOR) ([1]; ratio of EC50 values, GTPγS) | selective for KOR and DOR over MOR ([4]; binding selectivity) | selectivity for MOR and DOR over KOR ([4]; binding selectivity) [fold]
1 | Cc1cc(O)cc(C)c1C[C@H](N)C(=O)N1CCc2ccc(CN3CCOCC3)cc2C1 [Compound 8n, (S)-2-amino-3-(4-hydroxy-2,6-dimethylphenyl)-1-(7-(morpholinomethyl)-3,4-dihydroisoquinolin-2(1H)-yl)propan-1-one] | 860 | 38 | dns | dns | 5.6 | 43 | dns | dns | 39 | – | – | – | – | – | –
2 | Cc1cc(O)cc(C)c1C[C@H](N)C(=O)N1CCc2ccc(Cc3cccc4ccccc34)cc2C1 [Compound 8o, (S)-2-amino-3-(4-hydroxy-2,6-dimethylphenyl)-1-(7-(naphthalen-1-ylmethyl)-3,4-dihydroisoquinolin-2(1H)-yl)propan-1-one] | 132 | 59 | dns | dns | 3.2 | 4.7 | – | – | 5.2 | 349 | 83 | – | – | – | –
3 | Cc1cc(O)cc(C)c1C[C@H](N)C(=O)N1CCc2ccc(Cc3ccc4ccccc4c3)cc2C1 [Compound 8p, (S)-2-amino-3-(4-hydroxy-2,6-dimethylphenyl)-1-(7-(naphthalen-2-ylmethyl)-3,4-dihydroisoquinolin-2(1H)-yl)propan-1-one] | 176 | 51 | dns | dns | 3.5 | 142 | dns | dns | 5.8 | – | – | – | – | – | –
4 | Cc1cc(O)cc(C)c1C[C@H](N)C(=O)N1CCc2ccc(Cc3cccc4cccnc34)cc2C1 [Compound 8q, (S)-2-amino-3-(4-hydroxy-2,6-dimethylphenyl)-1-(7-(quinolin-8-ylmethyl)-3,4-dihydroisoquinolin-2(1H)-yl)propan-1-one] | 24 | 63 | – | 23 (4) % | 0.46 | 19 | – | – | 1.4 | 258 | 25 | 1.2 | – | – | –
5 | Cc1cc(O)cc(C)c1C[C@H](N)C(=O)N1CCc2ccc(Cc3cccc4ccncc34)cc2C1 [Compound 8r, (S)-2-amino-3-(4-hydroxy-2,6-dimethylphenyl)-1-(7-(isoquinolin-8-ylmethyl)-3,4-dihydroisoquinolin-2(1H)-yl)propan-1-one] | 24 | 36 | dns * | dns * | 0.69 | 2.7 | – | – | 1.8 | 65 | 42 | – | – | – | –
6 | Cc1cc(O)cc(C)c1C[C@H](N)C(=O)N1CCc2ccc(Cc3cccc4cnccc34)cc2C1 [Compound 8s, (S)-2-amino-3-(4-hydroxy-2,6-dimethylphenyl)-1-(7-(isoquinolin-5-ylmethyl)-3,4-dihydroisoquinolin-2(1H)-yl)propan-1-one] | 43 | 28 | dns | dns | 1.2 | 10 | – | – | 9.7 | 609 | 24 | – | – | – | –
7 | Cc1cc(O)cc(C)c1C[C@H](N)C(=O)N1CCc2ccc(Cc3cccc4ncccc34)cc2C1 [Compound 8t, (S)-2-amino-3-(4-hydroxy-2,6-dimethylphenyl)-1-(7-(quinolin-5-ylmethyl)-3,4-dihydroisoquinolin-2(1H)-yl)propan-1-one] | 54 | 31 | dns * | dns * | 1.2 | 1.5 | – | – | 4.6 | 58 | 69 | – | equipotent | approximately 3 fold | –
8 | Cc1cc(O)cc(C)c1C[C@H](N)C(=O)N1CCc2ccc(Cc3ccnc4ccccc34)cc2C1 [Compound 8u, (S)-2-amino-3-(4-hydroxy-2,6-dimethylphenyl)-1-(7-(quinolin-4-ylmethyl)-3,4-dihydroisoquinolin-2(1H)-yl)propan-1-one] | 54 | 45 | dns * | dns * | 0.79 | 8.6 | dns | dns | 6.6 | – | – | – | – | – | –
9 | Cc1cc(O)cc(C)c1C[C@H](N)C(=O)N1CCc2ccc(Cc3cncc4ccccc34)cc2C1 [Compound 8v, (S)-2-amino-3-(4-hydroxy-2,6-dimethylphenyl)-1-(7-(isoquinolin-4-ylmethyl)-3,4-dihydroisoquinolin-2(1H)-yl)propan-1-one] | 12 | 81 | – | 39 (7) % | 0.3 | 0.73 | – | – | 1.4 | 14 | 71 | 19 | – | – | –
10 | Cc1cc(O)cc(C)c1C[C@H](N)C(=O)N1CCc2ccc(CN3CCc4ccccc4C3)cc2C1 [Compound 8w, (S)-2-amino-1-(7-((3,4-dihydroisoquinolin-2(1H)-yl)methyl)-3,4-dihydroisoquinolin-2(1H)-yl)-3-(4-hydroxy-2,6-dimethylphenyl)propan-1-one] | 8.2 | 85 | dns * | dns * | 2.3 | 42 | dns | dns | 0.6 | – | – | – | – | – | 18
11 | Cc1cc(O)cc(C)c1C[C@H](N)C(=O)N1CCc2ccc(CN3CCCc4ccccc43)cc2C1 [Compound 8x, (S)-2-amino-1-(7-((3,4-dihydroquinolin-1(2H)-yl)methyl)-3,4-dihydroisoquinolin-2(1H)-yl)-3-(4-hydroxy-2,6-dimethylphenyl)propan-1-one] | 73 | 65 | dns * | dns * | 6.6 | 7.1 | – | – | 7.2 | 375 | 67 | – | – | – | –
